{"source": "paper PMC5559315", "about": "(Biochimie, 2017)", "key": {"[1]": {"target": "full length sGC from Manduca sexta (Ms sGC)", "conditions": "read-out: KD(CO), ref [27]; cited from earlier work"}, "Cb H-NOX": {"target": "Cb H-NOX", "conditions": "ref [11], cited from earlier work"}, "ferrous So H-NOX": {"target": "ferrous So H-NOX", "assay": "Stopped-flow binding kinetics of gaseous ligands to ferrous So H-NOX", "parameters": "species or system Shewanella oneidensis", "conditions": "for kon: ferrous So H-NOX, room temperature, anaerobic, CO: 6c CO-heme-His complex"}, "[2]": {"target": "β H-NOX/PAS subunit of Ms sGC", "conditions": "read-out: KD(CO); β H-NOX/PAS subunit alone; ref [27]; cited from earlier work"}, "[3]": {"target": "soluble guanylyl cyclase (sGC)", "conditions": "cited from earlier work; for Kd / koff / kon: ref [18]"}, "Vc H-NOX [4]": {"target": "Vc H-NOX", "conditions": "ref [9], cited from earlier work"}, "Ns H-NOX": {"target": "Ns H-NOX", "conditions": "cited from earlier work; for Kd / koff / kon: ref [10],[18]"}, "Tt H-NOX": {"target": "Tt H-NOX", "conditions": "ref [11], cited from earlier work; for Kd / koff / kon: NO: 6c NO-heme-His complex"}, "Ms sGC NT2": {"target": "Ms sGC NT2", "conditions": "read-out: KD(CO); Ms sGC NT2, lacking 48 residues from α-subunit N-terminus and the catalytic domains; ref [27]; cited from earlier work"}, "Vc H-NOX [5]": {"test_system": "Vc H-NOX", "assay": "Gaseous ligand binding kinetics of Vc H-NOX", "parameters": "species or system Vibrio cholera", "conditions": "reacted with 600 µM O2; data not shown"}, "[6]": {"conditions": "calculated as koff/kon, NO: 6c NO-heme-His complex"}, "[7]": {"conditions": "NO: 6c NO-heme-His complex, O2: high pressure cell"}, "[8]": {"conditions": "O2, estimated based on the sliding scale rule"}, "[9]": {"conditions": "Intermediate NO-heme--NO(−-His), estimated based on computer simulations"}}, "note": "Entries after “also recorded” stand apart in the source; their conditions may differ. Read-outs that look alike come from different tables or passages of the source."}
{"compound": "[C-]#[O+]", "note": "[CO, carbon monoxide]", "values": [{"measurement": "Kd", "setting": "[1]", "result": "50 to 100", "unit": "µM"}, {"measurement": "Kd", "setting": "Cb H-NOX; NO: 6c NO-heme-His complex", "result": 670, "unit": "nM"}, {"measurement": "koff", "setting": "Cb H-NOX; NO: 6c NO-heme-His complex", "result": 1.0, "unit": "s⁻¹"}, {"measurement": "kon", "setting": "Cb H-NOX; NO: 6c NO-heme-His complex", "result": "1.5e+06", "unit": "M⁻¹ s⁻¹"}, {"measurement": "Kd", "setting": "ferrous So H-NOX; [6]", "result": 0.85, "unit": "µM"}, {"measurement": "kon", "setting": "ferrous So H-NOX; NO: 6c NO-heme-His complex", "result": 820000, "unit": "M⁻¹ s⁻¹"}, {"measurement": "Kd", "setting": "[2]", "result": 0.2, "unit": "µM"}, {"measurement": "Kd", "setting": "[3]; NO: 6c NO-heme-His complex", "result": 260, "unit": "µM"}, {"measurement": "koff", "setting": "[3]; NO: 6c NO-heme-His complex", "result": 10.7, "unit": "s⁻¹"}, {"measurement": "kon", "setting": "[3]; NO: 6c NO-heme-His complex", "result": 40000, "unit": "M⁻¹ s⁻¹"}, {"measurement": "Kd", "setting": "Vc H-NOX [4]; NO: 6c NO-heme-His complex", "result": 0.77, "unit": "µM"}, {"measurement": "koff", "setting": "Vc H-NOX [4]; NO: 6c NO-heme-His complex", "result": 0.85, "unit": "s⁻¹"}, {"measurement": "kon", "setting": "Vc H-NOX [4]; NO: 6c NO-heme-His complex", "result": "1.1e+06", "unit": "M⁻¹ s⁻¹"}, {"measurement": "Kd", "setting": "Ns H-NOX; [7]", "result": 1.4, "unit": "µM"}, {"measurement": "koff", "setting": "Ns H-NOX; NO: 6c NO-heme-His complex", "result": 3.6, "unit": "s⁻¹"}, {"measurement": "kon", "setting": "Ns H-NOX; NO: 6c NO-heme-His complex", "result": "3e+06", "unit": "M⁻¹ s⁻¹"}, {"measurement": "Kd", "setting": "Tt H-NOX", "result": 160, "unit": "nM"}, {"measurement": "koff", "setting": "Tt H-NOX", "result": 0.5, "unit": "s⁻¹"}, {"measurement": "kon", "setting": "Tt H-NOX", "result": "3.3e+06", "unit": "M⁻¹ s⁻¹"}, {"measurement": "Kd", "setting": "Ms sGC NT2", "result": "50 to 100", "unit": "µM"}]}
{"compound": "O=O", "note": "[O2]", "values": [{"measurement": "autoxidation rate", "setting": "Vc H-NOX [5]", "result": "~ 4 × 10^−3 s^−1"}, {"measurement": "Kd", "setting": "Cb H-NOX; NO: 6c NO-heme-His complex", "result": 53000, "unit": "nM"}, {"measurement": "autoxidation rate", "setting": "Cb H-NOX; reacted with 600 µM O2", "result": 0.02, "unit": "s⁻¹"}, {"measurement": "O2 binding", "setting": "ferrous So H-NOX; O2-saturated buffer, final [O2] = 600 µM, no oxyferrous intermediate", "result": "does not bind O2"}, {"measurement": "Kd", "setting": "ferrous So H-NOX; [8]", "result": "~4500", "unit": "µM"}, {"measurement": "Kd", "setting": "Vc H-NOX [4]; [8]", "result": "~1300", "unit": "µM"}, {"measurement": "Kd", "setting": "Ns H-NOX; [7]", "result": 13000, "unit": "µM"}, {"measurement": "autoxidation rate", "setting": "Ns H-NOX; ref [10]", "result": "1.4e-05", "unit": "s⁻¹"}, {"measurement": "Kd", "setting": "Tt H-NOX", "result": 44, "unit": "nM"}, {"measurement": "koff", "setting": "Tt H-NOX", "result": 1.9, "unit": "s⁻¹"}, {"measurement": "kon", "setting": "Tt H-NOX", "result": "4.3e+07", "unit": "M⁻¹ s⁻¹"}, {"measurement": "autoxidation of oxyferrous heme", "setting": "Tt H-NOX", "result": "no autoxidation is observed"}]}
{"compound": "nitric oxide [NO]", "values": [{"measurement": "koff", "setting": "Cb H-NOX; 5c heme-NO complex", "result": 0.0011, "unit": "s⁻¹"}, {"measurement": "kon", "setting": "Cb H-NOX; [9]", "result": "1.8 × 10^7 ^‡ M^−1s^−1"}, {"measurement": "Kd", "setting": "Cb H-NOX; NO: 6c NO-heme-His complex", "result": 0.08, "unit": "nM"}, {"measurement": "koff", "setting": "Cb H-NOX; NO: 6c NO-heme-His complex", "result": 0.012, "unit": "s⁻¹"}, {"measurement": "kon", "setting": "Cb H-NOX; NO: 6c NO-heme-His complex", "result": "1.5e+08", "unit": "M⁻¹ s⁻¹"}, {"measurement": "Kd", "setting": "Cb H-NOX; read-out: KD(NO)(apparent), 5c heme-NO complex", "result": 0.0073, "unit": "nM"}, {"measurement": "koff,5c(NO)", "setting": "ferrous So H-NOX; 5c heme-NO complex, CO displacement method", "result": 0.0013, "unit": "s⁻¹"}, {"measurement": "koff, dissociation rate of NO from the quaternary intermediate", "setting": "ferrous So H-NOX; Intermediate NO-heme--NO(−-His), y-intercept of secondary plot", "result": "very small; also recorded: small"}, {"measurement": "Kd", "setting": "ferrous So H-NOX; [6]", "result": 0.00015, "unit": "µM"}, {"measurement": "kon", "setting": "ferrous So H-NOX; NO: 6c NO-heme-His complex", "result": "1.5e+09", "unit": "M⁻¹ s⁻¹"}, {"measurement": "formation rate of the 5c heme-NO complex (D → E)", "setting": "ferrous So H-NOX; not measured directly, significantly faster than kobs at 30 µM NO", "result": "> 600", "unit": "s⁻¹"}, {"measurement": "koff", "setting": "[3]; 5c heme-NO complex", "result": "10^−4 – 10^−3 s^−1"}, {"measurement": "koff", "setting": "[3]; Intermediate NO-heme--NO(−-His)", "result": 26, "unit": "s⁻¹"}, {"measurement": "Kd", "setting": "[3]; NO: 6c NO-heme-His complex", "result": 0.054, "unit": "µM"}, {"measurement": "koff", "setting": "[3]; NO: 6c NO-heme-His complex", "result": 27, "unit": "s⁻¹"}, {"measurement": "kon", "setting": "[3]; NO: 6c NO-heme-His complex", "result": "1.4e+08", "unit": "M⁻¹ s⁻¹"}, {"measurement": "conversion rate from 6c NO complex to 5c NO-heme complex", "setting": "[3]; ref [23]", "result": 8.5, "unit": "s⁻¹"}, {"measurement": "koff", "setting": "Vc H-NOX [4]; 5c heme-NO complex", "result": "10^−3 – 10^−2 s^−1"}, {"measurement": "koff", "setting": "Vc H-NOX [4]; [9]", "result": "4.5 × 10^3 ^‡ s^−1"}, {"measurement": "kon", "setting": "Vc H-NOX [4]; [9]", "result": "2.5 × 10^7 ^‡ M^−1s^−1"}, {"measurement": "Kd", "setting": "Vc H-NOX [4]; NO: 6c NO-heme-His complex", "result": 0.00027, "unit": "µM"}, {"measurement": "koff", "setting": "Vc H-NOX [4]; NO: 6c NO-heme-His complex", "result": 0.3, "unit": "s⁻¹"}, {"measurement": "kon", "setting": "Vc H-NOX [4]; NO: 6c NO-heme-His complex", "result": "1.1e+09", "unit": "M⁻¹ s⁻¹"}, {"measurement": "Kd", "setting": "Ns H-NOX; 2nd 6c NO-heme-His complex", "result": 0.8, "unit": "µM"}, {"measurement": "koff", "setting": "Ns H-NOX; 2nd 6c NO-heme-His complex", "result": 1.9, "unit": "s⁻¹"}, {"measurement": "kon", "setting": "Ns H-NOX; 2nd 6c NO-heme-His complex", "result": "2.4e+06", "unit": "M⁻¹ s⁻¹"}, {"measurement": "Kd", "setting": "Ns H-NOX; [7]", "result": 0.00017, "unit": "µM"}, {"measurement": "koff", "setting": "Ns H-NOX; NO: 6c NO-heme-His complex", "result": 0.05, "unit": "s⁻¹"}, {"measurement": "kon", "setting": "Ns H-NOX; NO: 6c NO-heme-His complex", "result": "3e+08", "unit": "M⁻¹ s⁻¹"}, {"measurement": "Kd", "setting": "Tt H-NOX", "result": 0.023, "unit": "nM"}, {"measurement": "koff", "setting": "Tt H-NOX", "result": 0.0034, "unit": "s⁻¹"}, {"measurement": "kon", "setting": "Tt H-NOX", "result": "1.5e+08", "unit": "M⁻¹ s⁻¹"}]}
